The source of these data is article PMC10870750 (ACS Polymers Au, 2023).

Positions of bridges follow the written chain, without caps; N, C: chain ends. Non-standard residues stand in square brackets, D forms with d. Residues, ends and D or L forms follow the SMILES beside them. S5 = C=CCCC[C@](C)(N)C(=O)O

In data set [1] the test system is human red blood cells (RBCs). To be noted: 50 μM; ref our previous study; cited from earlier work.
The next data set is described as follows: Dynamic light scattering. The settings on record: 200 μM in 10 mM PBS; from lack of reliable DLS data and visibly clear solutions. In kind it is physicochemical.

As for `CC[C@H](C)[C@H](NC(=O)[C@H](C)NC(=O)[C@H](CCCCN)NC(=O)[C@H](CO)NC(=O)[C@H](CCC(=O)O)NC(=O)[C@@H]1CCCN1C(C)=O)C(=O)N[C@@H](CCCCN)C(=O)N[C@@]1(C)CCCC=CCCC[C@@](C)(C(=O)N[C@H](C(=O)N[C@@H](CO)C(=O)N[C@@H](CCCCN)C(=O)N[C@@H](CCC(=O)O)C(=O)N[C@@H](CCCNC(=N)N)C(=O)N[C@@H](CO)C(=O)N[C@@H](CCCCN)C(=O)N[C@@H](CCCNC(=N)N)C(=O)N[C@@H](CO)C(=O)N2CCC[C@H]2C(N)=O)C(C)C)NC(=O)[C@H](CCCCN)NC(=O)[C@H](CC(C)C)NC(=O)[C@H](CC(C)C)NC1=O` [stapled Ac-P9] (Ac-PESKAIK[S5]LLK[S5]VSKERSKRSP-NH2; staple 8-12), the hemolysis entry in data set [1] is given as “does not induce significant hemolysis”. The “solubility / aggregation state in solution” value in “Dynamic light scattering” is “soluble or exists in very small aggregates”.
